41 compounds from ChEMBL document CHEMBL1157631, “Discovery and SAR of thiazolidine-2,4-dione analogues as insulin-like growth factor-1 receptor (IGF-1R) inhibitors via hierarchical virtual screening” (J Med Chem, 2010) can be followed below.

The structures appear in SMILES notation. The source made the active and inactive calls. No cut-off for these calls is given here.

The target of series [1] is Insulin-like growth factor 1 receptor (Homo sapiens, UniProt P08069). Kind of series: Inhibition of IGF1R by ELISA.
Chain of Insulin-like growth factor 1 receptor (P08069 31-736 limits assumed): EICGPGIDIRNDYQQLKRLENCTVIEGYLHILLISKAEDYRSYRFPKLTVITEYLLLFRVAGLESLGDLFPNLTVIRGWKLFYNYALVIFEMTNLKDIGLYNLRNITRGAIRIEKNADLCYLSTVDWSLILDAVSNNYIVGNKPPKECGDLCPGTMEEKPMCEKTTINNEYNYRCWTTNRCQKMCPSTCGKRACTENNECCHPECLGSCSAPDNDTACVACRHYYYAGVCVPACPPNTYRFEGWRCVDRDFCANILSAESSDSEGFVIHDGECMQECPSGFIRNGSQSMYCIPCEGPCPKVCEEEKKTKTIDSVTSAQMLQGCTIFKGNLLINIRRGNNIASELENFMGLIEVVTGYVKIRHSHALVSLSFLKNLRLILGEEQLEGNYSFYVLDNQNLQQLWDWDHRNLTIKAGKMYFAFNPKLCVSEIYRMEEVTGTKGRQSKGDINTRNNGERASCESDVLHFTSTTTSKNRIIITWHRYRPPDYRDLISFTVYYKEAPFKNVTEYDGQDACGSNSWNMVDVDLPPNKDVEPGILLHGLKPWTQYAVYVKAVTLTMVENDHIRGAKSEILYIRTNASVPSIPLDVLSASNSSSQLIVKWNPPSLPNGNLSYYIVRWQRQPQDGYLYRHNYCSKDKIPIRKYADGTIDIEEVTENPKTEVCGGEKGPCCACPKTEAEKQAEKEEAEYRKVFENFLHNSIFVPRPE
Chain of Insulin-like growth factor 1 receptor (P08069 741-1367 limits assumed): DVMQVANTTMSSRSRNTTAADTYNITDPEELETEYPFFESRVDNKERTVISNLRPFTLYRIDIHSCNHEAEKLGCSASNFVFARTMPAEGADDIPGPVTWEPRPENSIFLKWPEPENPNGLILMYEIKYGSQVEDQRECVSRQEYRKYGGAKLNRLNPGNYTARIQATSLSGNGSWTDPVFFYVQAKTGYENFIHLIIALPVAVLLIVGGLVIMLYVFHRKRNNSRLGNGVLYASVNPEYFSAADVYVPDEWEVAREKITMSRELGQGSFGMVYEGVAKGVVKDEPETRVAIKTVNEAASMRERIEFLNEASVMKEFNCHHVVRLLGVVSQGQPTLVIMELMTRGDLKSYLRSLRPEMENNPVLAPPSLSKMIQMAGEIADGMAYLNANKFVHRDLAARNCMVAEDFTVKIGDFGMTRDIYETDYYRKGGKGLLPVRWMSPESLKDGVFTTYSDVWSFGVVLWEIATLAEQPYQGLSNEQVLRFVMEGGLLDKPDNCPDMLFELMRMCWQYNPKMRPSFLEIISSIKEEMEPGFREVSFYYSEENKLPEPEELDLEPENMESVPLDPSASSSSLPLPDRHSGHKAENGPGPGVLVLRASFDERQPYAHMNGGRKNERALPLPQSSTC
Series [2] has as its system MCF7. Kind of series: Antiproliferative activity against human MCF7 cells after 72 hrs by SRB assay. It is filed as functional, cell-based. The note with it: MCF7, 72 h.
Series [3] deals with Insulin receptor (Homo sapiens, UniProt P06213). The series can be described thus: Inhibition of IR by ELISA. On the technique in general: In an ELISA, binding on a coated surface is turned into a signal by an enzyme label.
Chain of Insulin receptor (P06213 28-758 limits assumed): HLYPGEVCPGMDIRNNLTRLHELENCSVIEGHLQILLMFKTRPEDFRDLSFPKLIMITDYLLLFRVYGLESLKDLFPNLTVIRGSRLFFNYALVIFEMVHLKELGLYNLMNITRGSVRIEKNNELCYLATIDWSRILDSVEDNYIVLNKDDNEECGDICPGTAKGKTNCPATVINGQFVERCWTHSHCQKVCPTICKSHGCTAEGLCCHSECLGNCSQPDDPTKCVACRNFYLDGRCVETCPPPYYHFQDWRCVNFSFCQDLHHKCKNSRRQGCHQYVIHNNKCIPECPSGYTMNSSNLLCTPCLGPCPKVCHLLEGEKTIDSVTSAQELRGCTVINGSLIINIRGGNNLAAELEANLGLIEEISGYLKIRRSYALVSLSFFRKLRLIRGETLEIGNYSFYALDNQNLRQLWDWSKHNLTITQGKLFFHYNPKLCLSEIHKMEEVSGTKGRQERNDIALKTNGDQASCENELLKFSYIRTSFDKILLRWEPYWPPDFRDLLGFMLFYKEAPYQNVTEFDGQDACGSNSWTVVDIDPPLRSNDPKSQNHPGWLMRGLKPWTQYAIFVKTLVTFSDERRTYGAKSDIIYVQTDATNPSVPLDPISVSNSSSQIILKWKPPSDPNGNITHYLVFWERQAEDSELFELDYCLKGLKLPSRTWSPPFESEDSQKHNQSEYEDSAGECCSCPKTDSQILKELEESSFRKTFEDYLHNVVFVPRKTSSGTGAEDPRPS
Chain of Insulin receptor (P06213 763-1382 limits assumed): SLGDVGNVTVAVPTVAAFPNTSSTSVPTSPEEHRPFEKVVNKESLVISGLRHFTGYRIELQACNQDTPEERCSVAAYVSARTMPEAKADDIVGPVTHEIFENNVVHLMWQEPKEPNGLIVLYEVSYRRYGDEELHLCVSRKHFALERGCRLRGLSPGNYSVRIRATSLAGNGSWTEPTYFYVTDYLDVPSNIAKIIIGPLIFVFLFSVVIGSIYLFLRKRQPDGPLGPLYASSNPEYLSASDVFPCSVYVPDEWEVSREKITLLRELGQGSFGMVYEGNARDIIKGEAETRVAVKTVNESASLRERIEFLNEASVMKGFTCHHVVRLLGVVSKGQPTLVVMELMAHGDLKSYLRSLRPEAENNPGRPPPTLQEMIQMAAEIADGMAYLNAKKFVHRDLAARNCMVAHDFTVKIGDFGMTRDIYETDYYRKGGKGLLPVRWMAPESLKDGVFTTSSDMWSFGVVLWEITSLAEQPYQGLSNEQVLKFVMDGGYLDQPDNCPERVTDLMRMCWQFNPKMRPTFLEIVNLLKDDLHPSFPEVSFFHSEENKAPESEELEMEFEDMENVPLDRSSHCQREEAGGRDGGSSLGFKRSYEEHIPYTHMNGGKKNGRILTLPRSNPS
Series [4] is described as follows: Dissociation constant, pKa of the compound. It is filed as physicochemical.
For series [5], the target named is Proto-oncogene tyrosine-protein kinase Src (Homo sapiens) (UniProt P12931). The series can be described thus: Inhibition of c-Src at 10 uM.
Chain of Proto-oncogene tyrosine-protein kinase Src (Homo sapiens) (P12931 2-536 limits assumed): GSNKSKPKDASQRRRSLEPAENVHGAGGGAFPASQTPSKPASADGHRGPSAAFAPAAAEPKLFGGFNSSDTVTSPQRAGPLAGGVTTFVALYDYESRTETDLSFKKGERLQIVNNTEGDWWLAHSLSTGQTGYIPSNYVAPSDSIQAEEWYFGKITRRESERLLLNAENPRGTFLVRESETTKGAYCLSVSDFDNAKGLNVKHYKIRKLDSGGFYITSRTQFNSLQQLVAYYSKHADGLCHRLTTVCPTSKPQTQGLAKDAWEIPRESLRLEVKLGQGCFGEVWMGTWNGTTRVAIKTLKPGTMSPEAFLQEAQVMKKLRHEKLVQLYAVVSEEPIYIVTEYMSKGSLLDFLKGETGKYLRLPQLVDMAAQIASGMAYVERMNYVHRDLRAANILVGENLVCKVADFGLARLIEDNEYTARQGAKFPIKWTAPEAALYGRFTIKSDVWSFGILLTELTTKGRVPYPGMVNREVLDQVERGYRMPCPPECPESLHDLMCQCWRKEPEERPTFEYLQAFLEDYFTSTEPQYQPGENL

As for `O=C1NC(=O)/C(=C\c2ccc(-c3ccc(F)cc3)o2)S1`, the 50% inhibitory concentration (IC50) (as a rule, the concentration that inhibits the measured activity by half) is 0.4 µM in series [1], 36.9 µM in series [2] and more than 100 µM in series [3].
The like results for `O=C1NC(=O)/C(=C\c2ccc(-c3cccc(Br)c3)o2)S1` were, in that order, 0.057 µM, 25.3 µM and 28 µM.
On to `CCCOc1c(Br)cc(/C=C2\SC(=O)NC2=O)cc1OCC`, for which the IC50 in series [1] was more than 100 µM.
On to `COc1cc(/C=C2/SC(=O)NC2=O)cc(I)c1O`, for which the results for the IC50 in series [1], in series [2] and in series [3] were 6.3 µM, 50.8 µM and more than 100 µM, respectively.
Regarding `COc1cc(/C=C2/SC(=O)NC2=O)ccc1OCc1ccccc1`, the IC50 in series [1] was more than 100 µM.
`O=C1NC(=O)/C(=C/c2ccc(-c3ccc(O)c(C(=O)O)c3)o2)S1`: the IC50 in series [2] came to 81.3 µM.
`O=C1NC(=O)/C(=C\c2ccc(N3CCCC3)c(F)c2)S1`: the 50% inhibitory concentration (IC50) in series [1] was more than 100 µM.
For the compound `CCOc1cccc(/C=C2/SC(=O)NC2=O)c1O`, the figures for the concentration for half-maximal inhibition (IC50) in series [1], in series [2] and in series [3] were 8.6 µM, more than 100 µM and more than 100 µM, respectively.
As for `CCOc1cc(/C=C2/SC(=O)NC2=O)cc(Cl)c1OCC`, the IC50 in series [1] was found to be 49.8 µM.
For `O=C1NC(=O)/C(=C\c2ccc(Cl)c(Cl)c2)S1`, the IC50 is 8.8 µM in series [1], 50.8 µM in series [2] and more than 100 µM in series [3].
For `O=C1NC(=O)/C(=C\c2ccc(-c3cccc(Cl)c3Cl)o2)S1` the same measures were 3.4 µM, 21.5 µM and more than 100 µM.
As to `Cc1ccc(N2CCC(N3CCN(C(=O)N4CCOCC4)CC3)CC2)c2[nH]c(-c3c(N[C@@H](CO)Cc4ccccc4Br)cc[nH]c3=O)nc12`, the IC50 in series [1] is 0.009 µM. This lies in the single-digit nanomolar range.
On to `O=C1NC(=O)/C(=C\c2cc3c(cc2Br)OCO3)S1`, for which the half-inhibitory concentration (IC50) was 3.3 µM in series [1], 24.8 µM in series [2] and more than 100 µM in series [3].
Turning to `CCC(=O)c1cccc(Nc2ccc3c(c2)/C(=C/Nc2ccc(N4CCN(C)CC4)cc2)C(=O)NC3=O)c1`, the IC50 in series [1] came to 0.319 µM. That is a sub-micromolar value.
Regarding `CCc1ccc(/C=C2\SC(=O)NC2=O)cc1`, the figures for the IC50 in series [1] and in series [3] were 11.1 µM and more than 100 µM, respectively.
On to `COc1cc(/C=C2\SC(=O)NC2=O)ccc1OCc1ccc(Cl)cc1Cl`, for which, in series [1], the IC50 is more than 100 µM.
In turn, `O=C1NC(=O)/C(=C\c2ccc(-c3ccc(Cl)c(Cl)c3)o2)S1` returned a half-inhibitory concentration (IC50) in series [2] of 14.8 µM. For the same compound, in series [4], the pKa (as a rule, the negative logarithm of the acid dissociation constant) was determined as 7.9.
For the compound `CCOc1ccc(/C=C2\SC(=O)NC2=O)cc1OCC(C)C`, in series [1], the midpoint of inhibition, the IC50, lay at 63.9 µM.
Consider `COc1cc(/C=C2/SC(=O)NC2=O)cc(OC)c1O`, for which the 50% inhibitory concentration (IC50) in series [1] was 5.3 µM; in series [3], more than 100 µM.
Turning to `O=C1NC(=O)/C(=C/c2ccc(Cl)cc2Cl)S1`, the IC50 is 15 µM in series [1], more than 100 µM in series [2] and more than 100 µM in series [3].
Compound `O=C1NC(=O)/C(=C\c2ccc(OCc3ccccc3Cl)cc2)S1` came in with an IC50 in series [1] of more than 100 µM.
For `CCC(C)COc1ccccc1/C=C1/SC(=O)NC1=O` (stereo not given), the IC50 in series [1] is 9 µM; in series [2], more than 100 µM; in series [3] it was more than 100 µM.
With `CCCCOc1ccc(/C=C2\SC(=O)NC2=O)cc1`, the IC50 in series [1] is more than 100 µM.
The compound `O=C1NC(=O)/C(=C\c2ccccc2OCc2ccc(Cl)cc2Cl)S1` displayed an IC50 in series [1] of more than 100 µM.
In turn, `O=C1NC(=S)S/C1=C\c1ccc(-c2ccccc2Cl)o1` displayed an IC50 in series [2] of more than 100 µM.
On to `COc1cc(Br)cc(/C=C2\SC(=O)NC2=O)c1O`, for which the result in series [5] was Active. This compound registered a half-inhibitory concentration (IC50) in series [3] of more than 100 µM.
`CCOc1cc(/C=C2\SC(=O)NC2=O)c(Br)cc1OC` returned a half-inhibitory concentration (IC50) in series [1] of more than 100 µM.
For `Cc1ccc(-c2ccc(/C=C3/SC(=O)NC3=O)o2)c(Br)c1`, the IC50 was 6.3 µM in series [1] and more than 100 µM in series [3].
In the case of `C=CCc1cc(/C=C2\SC(=O)NC2=O)cc(OC)c1OC`, the IC50 in series [1] is more than 100 µM.
For the compound `O=C1NC(=S)S/C1=C\c1ccc(-c2ccc(C(=O)O)cc2)o1`, the half-inhibitory concentration (IC50) in series [2] came out at 41.9 µM.
For `O=C1NC(=O)/C(=C\c2ccc(-c3ccc(F)c(Cl)c3)o2)S1`, the values for the IC50 in series [1], in series [2] and in series [3] were 0.28 µM, 16.9 µM and more than 100 µM, respectively.
Regarding `COc1c(Br)cc(/C=C2\SC(=O)NC2=O)cc1Br`, the figures for the half-maximal inhibitory concentration (IC50) in series [1] and in series [3] were 6.4 µM and 65.3 µM, respectively.
On to `CCOc1cc(Br)cc(/C=C2\SC(=O)NC2=O)c1O`, for which the IC50 in series [3] is more than 100 µM.
Take `CCOc1cc(/C=C2/SC(=O)NC2=O)cc(Br)c1O`: the half-maximal inhibitory concentration (IC50) in series [1] is 5.2 µM; in series [2], 56.3 µM; in series [3], more than 100 µM.
The like results for `O=C1NC(=O)/C(=C/c2ccccc2F)S1` were, in that order, 6.6 µM, more than 100 µM and more than 100 µM.
With `O=C1NC(=O)/C(=C\c2ccc(-c3ccc(Br)cc3)o2)S1`, the half-maximal inhibitory concentration (IC50) in series [1] is 6.7 µM; in series [2], 47.3 µM; in series [3], more than 100 µM.
Turning to `O=C1NC(=O)/C(=C\c2cccc([N+](=O)[O-])c2)S1`, the half-inhibitory concentration (IC50) in series [1] was 4.9 µM; in series [2] it was 55.8 µM; in series [3], more than 100 µM.
On to `O=C1NC(=O)/C(=C/c2cccc(OCc3ccc(Cl)cc3Cl)c2)S1`, for which the figures for the IC50 in series [1], in series [2] and in series [3] were 1.6 µM, 25.2 µM and more than 100 µM, respectively.
For the compound `CCOc1cc2c(cc1/C=C1\SC(=O)NC1=O)OCO2`, the values for the IC50 in series [1], in series [2] and in series [3] were 10 µM, more than 100 µM and more than 100 µM, respectively.
For the compound `O=C1NC(=O)/C(=C\c2ccc(-c3ccc(Cl)cc3Cl)o2)S1`, half-maximal inhibition in series [2] (IC50) required 17.3 µM.
Consider `CCOc1ccc(/C=C2/SC(=O)NC2=O)cc1OC`, for which the IC50 was 87.3 µM in series [2] and more than 100 µM in series [3].
